Measured values as given in ChEMBL document CHEMBL5604062, “ASAP - ZIKV NS2B-NS3 protease fluorescence dose response” (2024).
Where “and” joins values, the source holds several entries; their conditions need not be identical. Equal entries are not always repeated.

Molecular target: Nonstructural protein 3 (Zika virus, UniProt A0A024AXB9)
Experiment: Functional biochemical assay to identify treatments for viral infectious disease that targets Zika NS2B-NS3 protease. Utilizing a direct enzyme activity measurement method, reading the fluorescence intensity is used to characterize the relative potency of inhibitors as IC50.
Set-up: species or system PRVABC59

Sequence of Nonstructural protein 3 (A0A024AXB9 whole entry): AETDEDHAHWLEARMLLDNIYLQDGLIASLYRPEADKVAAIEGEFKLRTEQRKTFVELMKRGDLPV

SMILES	IC50
COC1CCN(C(=O)c2ccnc(NC(=O)c3cc(C4CC4)n(C)c3C)c2)CC1	> 25 µM
CC(C)N1CCC([C@H](NC(=O)OCc2ccccc2)C(=O)Nc2cccc(CN)c2)CC1	> 99.5 µM
Cc1c(C(=O)Nc2ccc3c(c2)CS(=O)(=O)C3)cc(C2CC2)n1C	> 25 µM
O=C(O)c1cc2cc(-c3cc(Cl)cc4c3CCNC4=O)ccc2[nH]1	> 99.5 µM
O=C(Nc1ccc2c(c1)CNC2)c1cc(Br)cc2[nH]ncc12	0.055 µM and 0.049 µM
C(#C[C@H](Nc1ccc2c(c1)CNC2)c1cccc2[nH]ncc12)c1ccccc1	> 25 µM
C[C@@H](Cc1c[nH]c2ccccc12)N1CC[C@H](c2c[nH]c3ccccc23)C1	> 99.5 µM
N[C@H]1CC[C@@H](NC(=O)[C@@H](NC(=O)OCc2ccccc2)c2ccc(OCc3ccccc3)cc2)C1	> 99.5 µM
Cc1[nH]c(-c2ccccc2)cc1C(=O)Nc1cc(-c2cccnc2)ccn1	> 25 µM
CCn1c(=O)c(N2CC[C@H](CO)C2)nc2ccc(C(N)=O)cc21	> 99.5 µM
O=C(Nc1cc(Cl)cc(C(=O)Nc2cc3n(n2)CCNC3)c1)OCc1ccccc1	> 99.5 µM
O=C(Cn1ccnc(N2CC[C@H](CO)C2)c1=O)N[C@H]1CCOC1	> 99.5 µM
CC[C@@H](NCc1c[nH]c2ccccc12)c1cccnc1	> 99.5 µM
CNC(=O)[C@]1(Nc2ccc3c(c2)CNC3)CCc2ccccc21	> 25 µM
c1ccc2c(Cc3ccc(-c4nnn[nH]4)cc3)c[nH]c2c1	> 99.5 µM
NCc1cccc(-c2csc3cc(C(=O)Nc4ccc5c(c4)CNC5)ccc23)c1	1.71 µM and 1.41 µM
c1ccc(COc2ccc3[nH]cc(CN4CCC(c5cscn5)CC4)c3c2)cc1	> 99.5 µM
Cc1c(C(=O)Nc2cc(CN)ccc2F)cc(C2CC2)n1C	> 99.5 µM
CC[C@H](C(=O)Nc1cccc(CN)c1)n1cc(Br)c(C(F)(F)F)n1	> 99.5 µM
CCn1cc(-c2cccc(-n3cccn3)c2)nc(N2CC[C@@H](CO)C2)c1=O	> 99.5 µM
O=C(Cn1ccc2cccnc21)N1CC[C@H](c2c[nH]c3ccccc23)C1	> 99.5 µM
Cc1cc(CN)cc(NS(=O)(=O)c2ccc(Oc3ccccc3Cl)cc2)c1	> 99.5 µM
OCC#C[C@H](Nc1ccc(-c2nnn[nH]2)cc1)c1cc(Cl)cc(C2CC2)c1	> 99.5 µM

SMILES	IC50
O=S(=O)(Nc1ccc(Oc2ccccc2Cl)cc1)c1c[nH]c2ccc(Cl)cc12	> 99.5 µM
CC(=O)N1CCCc2cc(NC(=O)c3cc(C4CC4)n(C)c3C)ccc21	> 25 µM
Cc1nc(N2CCOCC2)sc1CC(=O)Nc1cccc(CN)c1	> 99.5 µM
N#Cc1cc(Cl)cc(C(=O)Nc2cccc(-c3nnn[nH]3)c2)c1	> 99.5 µM
Cc1cc(CN)cc(NC(=O)c2cc(C3CC3)n(C)c2C)c1	> 99.5 µM
NCc1cccc(NC(=O)[C@@H](NC(=O)OCc2ccccc2)c2ccc(-c3ccnc(N)c3)cc2)c1	> 99.5 µM
O=C(Nc1cc(Cl)cc(C(=O)Nc2cnc3n2CCNC3)c1)OCc1ccccc1	> 99.5 µM
NCc1cccc(NC(=O)[C@@H]2CCC[C@@H](NC(=O)OCc3ccccc3)C2)c1	> 99.5 µM
CC(C)n1cc(CNC(=O)[C@@H](NC(=O)OCc2ccccc2)c2ccc(OCc3ccccc3)cc2)cn1	> 99.5 µM
CCOc1cc(COc2cccnc2F)nc(N2CCNCC2)n1	> 99.5 µM
O=C(Nc1ccc2c(c1)S(=O)(=O)NC2)c1cc(Cl)cc2[nH]ncc12	> 25 µM
CCn1ccnc(N2CC[C@@H](C(=O)NC)C2)c1=O	> 99.5 µM
COc1ccc2[nH]cnc2c1S(=O)(=O)Nc1ccc2c(c1)CNC2	> 25 µM
Cc1c(C(F)(F)F)n[nH]c1CN1CCC(c2cscn2)CC1	> 99.5 µM
NC(=O)c1ccc(N2CC[C@@H](CO)C2)cc1	> 99.5 µM
Cc1c(C(=O)NCc2cccc(C3COC3)c2)cc(C2CC2)n1C	> 25 µM
N#Cc1cc(Cl)cc(S(=O)(=O)Nc2cccc(-c3nnn[nH]3)c2)c1	> 99.5 µM
NCc1cccc(NC(=O)CN2CCN(C(=O)OCc3ccccc3)CC2)c1	> 99.5 µM
O=C(Cn1ccnc(N2CC[C@H](CO)C2)c1=O)N1CCOCC1	> 99.5 µM
Cn1nc(C(=O)Nc2cc([C@H]3CCOC3)ccn2)cc1C1CC1	> 25 µM
CC(C)(CO)NC(=O)c1cc(Cl)cc(NC(=O)c2cc(Cl)ccc2O)c1	> 99.5 µM
O=C(Nc1cc(Cl)cc(C(=O)Nc2ccc(CCN3CCOCC3)cc2)c1)OCc1ccccc1	> 99.5 µM
N#Cc1csc(CSc2nnc(C(F)(F)F)s2)n1	> 99.5 µM

SMILES	IC50
Cc1cc(C)c([C@@H](NC(=O)OCc2ccccc2)C(=O)Nc2cccc(CN)c2)c(C)c1	> 99.5 µM
O=C1Cc2c(cccc2C(=O)NC2(c3ncccc3F)CC2)N1	> 25 µM
CN1C(=O)Cc2cc(C(=O)Nc3ccc4c(c3)CNC4)ccc21	> 25 µM
CC(C)(C)OC(=O)N1Cc2ccc(NC(=O)c3cc(Cl)cc4[nH]ncc34)cc2C1	> 25 µM
O=C(O)c1cc(Cl)ccc1S(=O)(=O)Nc1ccc(F)c(NC(=O)C2CC2)c1	> 99.5 µM
O=C1Cc2c(cccc2C(=O)N[C@H]2CCC23CCOCC3)N1	> 25 µM
CN(C)C(=O)N1Cc2ccc(NC(=O)c3cc(Cl)cc4[nH]ncc34)cc2C1	> 25 µM
Cn1nc(NC(=O)[C@@H](NC(=O)OCc2ccccc2)c2ccc(OCc3ccccc3)cc2)c2c1CNC2	> 99.5 µM
CC[C@H]1CN(C(=O)Nc2ccc3c(c2)CNC3)C[C@@H]1c1ccc(OC)cc1	> 25 µM
O=C(N[C@H](C(=O)NCc1cccc(CO)n1)c1ccc(OCc2ccccc2)cc1)OCc1ccccc1	> 99.5 µM
NCc1cccc(NC(=O)[C@H]2[C@H]3CCCCC[C@H]3[C@H]2NC(=O)OCc2ccccc2)c1	41.3 µM and 51.2 µM and 13 µM and 11.9 µM
O=C(NCc1nnn[nH]1)c1cc(Cl)ccc1NS(=O)(=O)c1ccc(Oc2ccccc2Cl)cc1	> 99.5 µM
O=C1Cc2cc(C(=O)Nc3ccc4c(c3)CNC4)ccc2N1	2.41 µM and 6.85 µM
C=C1C[C@H](c2cccc(CN)c2)[C@@H](c2cc(Cl)cc(NC(=O)OCc3ccccc3)c2)C1	> 25 µM
Cc1ccc(NC(=O)OC(C)(C)C)c2[nH]cc(CN3CCC(c4cscn4)CC3)c12	> 99.5 µM
c1ccc2c(CN3CCCCC3)c[nH]c2c1	> 99.5 µM
NCc1cc(Cl)ccc1NS(=O)(=O)c1ccc(Oc2ccccc2Cl)cc1	> 99.5 µM
C[C@H](NC(=O)c1cc(Cl)cc(NC(=O)OCc2ccccc2)c1)C(=O)O	> 99.5 µM
c1ccc(C2CCN(Cc3ccc4nccnc4c3)CC2)nc1	> 99.5 µM
NCc1cccc(NC(=O)[C@@H](NC(=O)OCc2ccccc2)c2ccc(-c3ccnc4[nH]ccc34)cc2)c1	> 99.5 µM
Cc1ccc(-n2nc(C(=O)Nc3cccc(CN)c3)ccc2=O)cc1Cl	> 99.5 µM
O=C(Nc1cc2c(cc1Br)CNC2)c1cc(Cl)cc2[nH]ncc12	0.051 µM and 0.034 µM

Other lines, results leading:

IC50	SMILES
11.5 µM	CC(C)(C)OC(=O)NCc1cc(NC(=O)c2cc(Cl)cc(NC(=O)OCc3ccccc3)c2)cc(-c2nn[nH]n2)c1
3.52 µM	CC(=O)Nc1cc(Cl)cc(C(=O)Nc2cccc(CN)c2)c1
16.6 µM	O=C(Nc1ccc2c(c1)CNC2)c1cccnc1
69 µM	O=C(Nc1cc(Cl)cc(C(=O)Nc2cccc(C3(C(=O)O)CCC3)c2)c1)OCc1ccccc1
79.1 µM	CC[C@H](Cc1nn[nH]n1)c1ccc(N[C@H](C(=O)NC)c2cc(Cl)cc(NC(=O)OCc3ccccc3)c2)cc1
89.6 µM	c1ccc(CC2CCN(Cc3c[nH]c4ccccc34)CC2)cc1
21.1 µM	Cc1ccncc1-c1cc(CN)cc([C@@H]2C[C@H]2c2cc(Cl)cc(NC(=O)OCc3ccccc3)c2)c1
1.49 µM	NS(=O)(=O)c1cc(F)cc(C(=O)Nc2ccc3c(c2)CNC3)c1
0.129 µM	O=C(Nc1ccc2c(c1)CNC2)c1cccc2[nH]ncc12
6.31 µM	CNC(=O)[C@H](Nc1cc(Cl)cc(NC(=O)OCc2ccccc2)c1)c1cccc(CN)c1
33.4 µM	NCc1ccc(C[C@H](NC(=O)OCc2ccccc2)C(=O)Nc2cccc(CN)c2)cc1
47.5 µM	COC(=O)c1cc(Cl)cc([C@@H]2CN(Cc3ccccc3)C[C@H]2c2cccc(CN)c2)c1
10.7 µM	N#Cc1cc(CN)cc(NC(=O)c2cc(Cl)cc(NC(=O)OCc3ccccc3)c2)c1
0.113 µM	O=C(Nc1ccc2c(c1)CNC2)c1cccc2c1[C@]1(CCNC1)C(=O)N2
7.58 µM	O=C(Nc1cc(Cl)cc(-c2ccc3[nH]c(C(=O)O)cc3c2)c1)OCc1ccccc1
0.316 µM	CC(C)c1nc2c(C(=O)Nc3ccc4c(c3)CNC4)cc(Br)cc2[nH]1
70.7 µM	O=C(O)c1cc(Cl)ccc1NS(=O)(=O)c1ccc(Oc2ccccc2)cc1
34.7 µM	c1ccc(C2CCN(Cc3c[nH]c4ccccc34)CC2)nc1

IC50	SMILES
98.1 µM	COC(=O)C1(S(=O)(=O)N[C@H](C(=O)Nc2cccc(CN)c2)c2ccc(OCc3ccccc3)cc2)CCC1
1.28 µM	C[C@H](NC(=O)c1cc(Cl)cc2[nH]ncc12)c1ccc2c(c1)CNC2
19.5 µM	NCc1cccc(NC(=O)c2cccc3c2CCC3)c1
12.6 µM	CCc1ccccc1COc1ccc(S(=O)(=O)Nc2ccc(Cl)cc2C(=O)O)cc1
7.17 µM	NCc1cccc(NC(=O)c2cc(Cl)cc([C@H]3CCCCN3)c2)c1
18.1 µM	NCc1ccc(O)c(NC(=O)c2cc(Cl)cc(NC(=O)OCc3ccccc3)c2)c1
57.3 µM	Cc1noc(C)c1-c1ccc([C@@H](NC(=O)OCc2ccccc2)C(=O)Nc2cccc(CN)c2)cc1
19.9 µM	NCCCCc1ccc(NC(=O)c2cc(Cl)cc3[nH]ncc23)cc1
22.3 µM	NCc1cccc(/C=C/c2cc(Cl)cc(NC(=O)OCc3ccccc3)c2)c1
5.07 µM	Cn1ncc2c(C(=O)Nc3ccc4c(c3)CNC4)cc(C3CC3)nc21
0.152 µM	Cc1ncc(-c2cc(F)cc(C(=O)Nc3ccc4c(c3)CNC4)c2)o1
7.49 µM	CC1(C)C(=O)Nc2ccc(C(=O)Nc3ccc4c(c3)CNC4)cc21
0.187 µM	CCc1nc2c(C(=O)Nc3ccc4c(c3)CNC4)cc(Br)cc2[nH]1
14.6 µM	NCc1cccc(NC(=O)c2cc(NC(=O)OCc3ccccc3)cc(C(F)(F)F)c2)c1
49.9 µM	O=C(NCC1CC1)c1cc(Cl)cc(NS(=O)(=O)c2ccc(Oc3ccccc3Cl)cc2)c1
2.44 µM	N#C[C@H](Nc1ccc2c(c1)CNC2)c1cc(Cl)cc2c1OCC2
0.848 µM	O=C(Nc1ccc2c(c1)CNC2)c1cc(Br)cc2c1OCO2
12.1 µM	CC(=Cc1cccc(-c2nnn[nH]2)c1)c1cc(Cl)cc(NC(=O)OCc2ccccc2)c1
